Read-outs that look alike come from different tables or passages of the source.
Experiments:
[1] = tested on: MDA-MB-231; assay: MTT cytotoxicity assay; type: cell-based, human; settings: for IC50: MDA-MB-231, MTT, 72 h, human breast adenocarcinoma; for SI MDA-MB-231: SI = IC50 for normal cell line (HaCaT)/IC50 cancer cell line
Experimental: (§1) The human primary (SW480) and metastatic (SW620) colon cancer, metastatic prostate cancer (PC3), breast adenocarcinoma (MDA-MB-231) and human immortal keratinocyte (HaCaT) cell lines were recruited from the American Type Culture Collection (ATCC). The cells were cultured in the recommended medium according to protocols (RPMI 1640 for PC3, MEM for SW480 and SW620, as well as DMEM for MDA-MB-231 and HaCaT cells) with addition of 10% FBS, penicillin (100 U/mL), and streptomycin (100 μg/mL) and cultured in 37 °C/5% CO2 in a humidified incubator. Then, the cells were passaged at a confluence of 80–90% by a treatment with 0.25% trypsin (Gibco Life Technologies) and used for studies.
(§2) They were added to 96-well plates with seeded normal and cancer cells (1 × 10^4 cells per well) and incubated for 72 h. MTT analysis was performed according to a previous study.

[2] = tested on: PC3; assay: MTT cytotoxicity assay; type: cell-based, human; settings: for IC50: PC-3, MTT, 72 h, human metastatic prostate cancer; for SI PC3: SI = IC50 for normal cell line (HaCaT)/IC50 cancer cell line
Experimental: as §1, §2

[3] = tested on: SW480; assay: MTT cytotoxicity assay; type: cell-based, human; settings: for SI SW480: SI = IC50 for normal cell line (HaCaT)/IC50 cancer cell line; for IC50: SW480, MTT, 72 h, human primary colon cancer
Experimental: as §1, §2

[4] = tested on: SW620; assay: MTT cytotoxicity assay; type: cell-based, human; settings: for SI SW620: SI = IC50 for normal cell line (HaCaT)/IC50 cancer cell line; for IC50: SW-620, MTT, 72 h, human metastatic colon cancer
Experimental: as §1, §2

[5] = tested on: HaCaT; assay: MTT cytotoxicity assay, normal cells; type: cell-based; settings: 72 h, human immortal keratinocytes (normal cells); for IC50: HaCaT
Experimental: as §1, §2

[6] = tested on: tested cancer cell lines (SW480, SW620, PC3, MDA-MB-231); assay: MTT assay, mean over tested cancer cell lines; type: cell-based; settings: Homo sapiens, mean of the four cancer cell lines
Experimental: They were added to 96-well plates with seeded normal and cancer cells (1 × 10^4 cells per well) and incubated for 72 h. MTT analysis was performed according to a previous study. […]

[7] = Trypan blue assay; type: cell-based, human; settings: human, HaCaT cells, compound at IC50, 72 h, mean
Experimental: (§3) The total cell count was assessed by trypan blue exclusion dye assay using automated cell counter (Countess Invitrogen). Untreated cells were used as the control. Each experiment was repeated 5 times.

[8] = tested on: HaCaT; assay: Trypan blue assay; type: cell-based, human; settings: compound at IC50, 72 h; for cell number: mean; for reduction of number of cells: vs control
Experimental: as §3

[9] = tested on: SW620; assay: Trypan blue assay; type: cell-based, human; settings: SW620, compound at IC50, 72 h
Experimental: as §3

[10] = tested on: HaCaT; assay: Annexin V-FITC/PI flow cytometry; type: cell-based, human; settings: compound at IC50, 72 h, mean
Experimental: (§4) The apoptotic and necrotic cells treated with derivatives 2b, 4a, 4b were detected using FITC Annexin V Apoptosis Detection Kit I (BD Biosciences Pharmingen). Briefly, cells (2 × 10^5 cells/well) were seeded in 6-well plates in supplemented medium. […] Then cells were harvested, washed, and labeled with Annexin V-FITC and propidium iodide (PI) according to the manufacturer’s protocol. The stained cells were analyzed by flow cytometry. The cells were identified as early apoptotic (Annexin V+/PI−) or late apoptotic/necrotic (Annexin V+/PI+).

[11] = tested on: SW620; assay: Annexin V-FITC/PI flow cytometry; type: cell-based, human; settings: SW620, compound at IC50, 72 h, mean
Experimental: as §4

[12] = tested on: IL-6 in HaCaT cells; assay: Interleukin-6 ELISA; type: cell-based, human; settings: compound at IC50, 72 h; for IL-6 concentration: ELISA
Experimental: (§5) The concentration of Interleukin-6 (IL-6) was measured in cell culture supernatant using Interleukin IL-6 High Sensitivity ELISA kit (Diaclon SAS, Besancon Cedex, France). Cells (1 × 10^5 cells/well) were seeded in 12-well plates with medium for 24 h. […] After this incubation, the supernatants were collected and 100 μL of supernatant samples, control solutions and blank were added to precoated ELISA plate with the preceding plotting of the standard curve. Then 50 μL of diluted biotinylated antihuman interleukin-6 antibody was added and incubated at room temperature for 3 h. Afterward, the plate was washed three times and 100 μL streptavidin-HRP solution was added to each well. After 30 min incubation, the plate was washed again three times and 100 μL of tetramethylbenzidine (TMB) solution was added to each well. The plate was incubated for 15 min in the dark. The reaction was stopped by adding 100 μL of H2SO4 solution. The absorbance was estimated using a spectrophotometer at 450 nm (Microplate Spectrophotometer Thermo Scientific Multiskan GO).

[13] = tested on: IL-6 in SW620 cells; assay: Interleukin-6 ELISA; type: cell-based, human; settings: SW620, compound at IC50, 72 h
Experimental: as §5

[14] = tested on: PC3; assay: Trypan blue assay; type: cell-based, human; settings: PC3, compound at IC50, 72 h
Experimental: as §3

[15] = tested on: PC3; assay: Annexin V-FITC/PI flow cytometry; type: cell-based, human; settings: PC3, compound at IC50, 72 h, mean
Experimental: as §4

[16] = tested on: IL-6 in PC3 cells; assay: Interleukin-6 ELISA; type: cell-based, human; settings: PC3, compound at IC50, 72 h
Experimental: as §5

[17] = read-out: average IC50 against tested cancer cell lines

SMILES | IC50 [1] [µM] | SI MDA-MB-231 [1] | IC50 [2] [µM] | SI PC3 [2] | SI SW480 [3] | IC50 [3] [µM] | SI SW620 [4] | IC50 [4] [µM] | IC50 [5] [µM] | IC50 [6, 17] [µM] | viability at 72 h [7] [%] | cell number [8] | reduction of number of cells [8] | Early apoptosis [%] [10] [%] | Late apoptosis [%] [10] [%] | Necrosis [%] [10] [%] | IL-6 concentration [12] [pg/mL] | also measured
CCOP(=O)(OCC)c1cc2cccc(OC)c2oc1=O [Compound 2b, Diethyl (8-Methoxy-2-oxo-2H-chromen-3-yl)phosphonate] | > 100 | 1 | > 100 | 1 | 1 | > 100 | 9.8 | 10.2 ± 1.63 | > 100 | > 77.5 | 94.7 | 5.66 x106 | below 10% | 2.60 | 1.30 | 0.30 | 11.3 ± 0.59 | IC50 HaCaT [5]: did not show any cytotoxic effects; cell number ([9]; mean): 2.26 x106; viability (%) ([9]; mean): 98.66%; reduction of number of live cells ([9]; vs control): 36.4%; Necrosis [%] [11]: 0.60%; increase in interleukin level ([12]; vs control): 10.7%; IL-6 concentration ([13]; ELISA): 2.1 ± 0.22 pg/mL; reduction of IL-6 level ([13]; vs control): 33.5%
COc1cccc2c1OC(=O)C(C(=O)O[C@@H]1C[C@H](C)CC[C@H]1C(C)C)C2P(=O)(c1ccccc1)c1ccccc1 (mixture of isomers) [Compound 4b, (1R,2S,5R)-2-Isopropyl-5-methylcyclohexyl-4-(diphenylphosphoryl)-8-methoxy-2-oxochromane-3-carboxylate] | 47.6 ± 4.73 | 0.58 | 9.9 ± 1.42 | 2.78 | 0.73 | 37.4 ± 2.45 | 1.39 | 19.8 ± 0.63 | 27.6 ± 3.12 | 28.7 | 98.3 | 5.23 x106 | 16.6% | 2.55 | 0.85 | 0.45 | 10.5 ± 0.94 | IC50 ([6]; Table S7, >100 entered as 100, read-out: mean anticancer IC50): 28.7 µM; cell number ([14]; mean): 4.26 x106; viability (%) ([14]; mean): 94%; reduction of number of live cells ([14]; vs control): 35.3%; Early apoptosis [%] [15]: 10.50%; Late apoptosis [%] [15]: 3.90%; Necrosis [%] [15]: 0.20%; reduction of IL-6 concentration ([12]; vs control): did not alter IL-6 secretion; IL-6 concentration ([16]; ELISA): 0.9 ± 0.03 pg/mL; reduction of IL-6 level ([16]; vs control): 79.2%

Source: PMC12529164, “Design, Synthesis, Structure–Activity Relationships, and Preliminary Anticancer Properties of Menthol-Modified Coumarin Esters and 3,4-Dihydrocoumarin Derivatives” (ACS Omega, 2025)
